# From US7645745B2, “Antiviral nucleosides” (priority 2006, dated 2010)
# Where two headings read alike, the source gives them in different places.
# Tests used:
# [1] = Caco2 protocol: transport through Caco-2 cell monolayers (Papp); type: in vitro ADME; conditions: human
# Experimental: (§1) To further evaluate potential behavior in human subjects, the transport through Caco-2 cells was evaluated for the putative prodrugs.
# (§2) Powders of Krebs-Henseleit buffer, calcium chloride dihydrate, and sodium bicarbonate were purchased from Sigma (St. Louis, Mo.). Caco-2 cells (Passage˜100) were obtained from Roche Basel. Dulbecco's Modified Eagle's Medium (DMEM)/high medium, 4-(2-hydroxyethyl)-1-piperazineethane-sulfonic acid (HEPES), and bovine serum were obtained from JRH Bioscience (Lenexa, Kans.). MEM nonessential amino acids, L-glutamine, penicillin, and streptomycin were obtained from GIBCO Labs, Life Tech. LLC (Grand Island, N.Y.). Snapwell cell culture inserts (6.5 mm diameter, 1.12 cm^2, 0.4 μm pore size) were obtained from Costar (Cambridge, Mass.).
# (§3) Culture media consisted of DMEM/high medium supplemented with 5% bovine serum, 25 mM HEPES, 1% MEM non-essential amino acids, 1% L-glutamine, 100 U/mL penicillin, and 100 μg/mL streptomycin. Cultures were passaged every week at a split ratio of 1-3. For the permeability studies, Caco-2 cells at passage number 110-120 were plated at a density of 400,000 cells/cm^2 on Transwell polycarbonate filters in Snapwell inserts and allowed to culture for 7 days prior to use.
# (§4) Krebs-Henseleit bicarbonate buffer containing 10 mM glucose and 2.5 mM CaCl2 adjusted to pH 6.5 and 7.4 were prepared per packet instructions. Powder salts were quantitatively dissolved in about 90% of required volume with Millipore water. Calcium chloride dihydrate and sodium bicarbonate were added before pH adjustment with 1N HCl or 1N NaOH. Additional Millipore water was added to bring the solution to final volume. The solution was sterilized by filtration using membrane with a porosity of 0.22 microns and stored in the refrigerator ([…]) until use.
# (§5) Snapwells inserts, containing caco-2 monolayers were rinsed in 37° C. equilibrated Krebs-Henseleit pH 7.4 buffer.
# (§6) The cell insert was utilized as the diffusion chamber. The pH of the Krebs-Henseleit buffer in the apical and basolateral chambers was 6.5 and 7.4, respectively, and the initial concentration of substrate in apical side was 100 μM. […] The experiments were initiated when the cell inserts with 100 μM compounds in pH 6.5 Krebs-Henseleit buffer were transferred into a new plate with pre-equilibrated buffer in basolateral chamber. Samples from donor side at 0 min, and both donor and receiver sides at 30 min were collected for analysis.
# (§7) Lucifer Yellow was used to assess the performance of the diffusion system. […] After 60 min of incubation, 250 μL was removed from the basal chamber and assayed.
# (§8) The Papp was calculated using the following formula:
# (§9) [formula] Where V is the volume (cm^3) of the receiver solution, A is the surface area (cm^2) of the Snapwell insert, Co is the initial concentration (nM), and dC/dt is the change in concentration in the receiver chamber over time, i.e., the slope (nM/min) of the concentration in the receiver chamber vs. time. Concentrations at each sampling time point were corrected to account for the aliquots removed or transferring of donor inserts to new plates depending on the experiment.
# Caco-2 cells = experiment: Caco2 protocol: transport through Caco-2 cell monolayers (Papp); type: in vitro ADME; conditions: Caco-2 cultured 7 days; apical pH 6.5, basolateral pH 7.4; 100 μM apical; 30 min
# Experimental: as §1, §2, §3, §4, §5, §6, §7, §8, §9
# [2] = Determination of pharmacokinetic parameters in rats (oral gavage, plasma LC/MS/MS); type: in vivo, rat; conditions: AUC(cyt) of parent cytidine nucleoside in plasma, dose equivalent to 10 mg/kg, male Hanover-Wistar rats
# Experimental: Determination of Pharmacokinetic Parameters in Rats Intact male IGS Wistar Han Rats Crl:WI(GLx/BRL/Han)IGS BR (Hanover-Wistar) rats weighing 200-250 g were used. Groups of three rats were used for each dose level of an experimental compound. Animals were allowed normal access to chow and water throughout the experiment. The test substance was formulated as an aqueous suspension containing Captex 355EP, Capmul MCM, EtOH, and propylene glycol (30:20:20:30) at a dose equivalent to 10 mg/kg of the I-5 and was administered orally by gavage. A blood sample (0.3 mL) was collected from the treated rats at, 0.25, 0.5, 1, 3, 5, and 8 h from a jugular cannula and at 24 h by cardiac puncture. Potassium oxalate/NaF were added to the samples which were stored on ice during sampling procedure. The samples were spun in a refrigerated centrifuge at […] as soon as possible and the plasma samples were stored in a −80° C. freezer until analysis. Aliquots of plasma (0.05 mL) were mixed with 0.1 mL of acetonitrile. Internal standard (0.05 mL in water) and 0.02 mL blank solvent were added. […] Sample Analysis—Prodrugs were analyzed using high-performance liquid chromatography with tandem mass-spectrometry (HPLC/MS/MS). […]
# HCV = conditions: monotherapy; cited from earlier work
"Papp A→B at 30 min, 100 μM ([1]; Caco-2)",melting point,SMILES,also measured
0.11 ×10⁻⁶ cm/s,164.5 to 167 °C,"CCC(=O)OC[C@H]1O[C@@H](n2ccc(N)nc2=O)[C@](C)(O)[C@@H]1OC(=O)CC.Cl [I-1, Propionic Acid (2R,3R,4R,5R)-5-(4-amino-2-oxo-2H-pyrimidin-1-yl)-4-hydroxy-4-methyl-3-propionyloxy-tetrahydro-furan-2-ylmethyl ester; Hydrochloride Salt]",
4.21 ×10⁻⁶ cm/s,158.2 to 159.2 °C,"CCCCC(=O)OC[C@H]1O[C@@H](n2ccc(N)nc2=O)[C@](C)(O)[C@@H]1OC(=O)CCCC.Cl [I-3, Pentanoic Acid (2R,3R,4R,5R)-5-(4-amino-2-oxo-2H-pyrimidin-1-yl)-4-hydroxy-4-methyl-3-pentanoyloxy-tetrahydro-furan-2-ylmethyl ester; Hydrochloride Salt]",

# More lines, now with the values behind:
SMILES,"Papp A→B at 30 min, 100 μM ([1]; Caco-2)",melting point,also measured
"CC(C)C(=O)OC[C@H]1O[C@@H](n2ccc(N)nc2=O)[C@](C)(O)[C@@H]1OC(=O)C(C)C.Cl [I-2, Iso-butyric Acid (2R,3R,4R,5R)-5-(4-amino-2-oxo-2H-pyrimidin-1-yl)-4-hydroxy-3-isobutyryloxy-4-methyl-tetrahydro-furan-2-ylmethyl ester; Hydrochloride Salt]",,,Caco2 (7 day) (Caco-2 cells): 1.06 cm/sec × 10^−6; Rat AUC [2]: 5600 ± 300 ng·h/mL
"C[C@@]1(O)[C@H](O)[C@@H](CO)O[C@H]1n1ccc(N)nc1=O [I-4, 4-amino-1-((2R,3R,4R,5R)-3,4-dihydroxy-5-hydroxymethyl-3-methyl-tetrahydro-furan-2-yl)-1H-pyrimidin-2-one, reference compound]",0.76 ×10⁻⁶ cm/s,,
"CC(C)C(N)C(=O)O[C@@H]1[C@@H](CO)O[C@@H](n2ccc(N)nc2=O)[C@]1(C)O (stereo partly drawn) [I-5, reference compound]",,,"Papp A→B at 30 min, 100 μM ([1]; Caco-2 cultured 7 days, apical pH 6.5, basolateral pH 7.4, 100 μM apical, 30 min, read-out: Caco2 (7 day)): 0.12 ×10⁻⁶ cm/s"
"NC(=O)c1ncn([C@@H]2O[C@H](CO)[C@@H](O)[C@H]2O)n1 [ribavirin, 1-((2R,3R,4S,5R)-3,4-Dihydroxy-5-hydroxymethyl-tetrahydro-furan-2-yl)-1H-[1,2,4]triazole-3-carboxylic acid amide]",,,patients with serum amino transferase levels reduced to normal (HCV): 40%
